Values quoted from earlier work as cited in PMC3187562 (ACS medicinal chemistry letters, 2011).

Key:
[1] = test system: ΔF508-CFTR; conditions: Phase 2a clinical study, CF patients
[2] = test system: ΔF508-CFTR; conditions: CF lung cell line expressing ΔF508-CFTR from a viral promoter
[3] = test system: HDAC7

Structure (SMILES): Cc1ccc(NC(=O)C2(c3ccc4c(c3)OC(F)(F)O4)CC2)nc1-c1cccc(C(=O)O)c1 [VX-809]
- sweat chloride levels (key biomarker) [1]: reduced sweat chloride levels

Structure (SMILES): CC(/C=C/C(=O)NO)=C\[C@@H](C)C(=O)c1ccc(N(C)C)cc1 [compound 1, trichostatin A]
- increase of ΔF508-CFTR mRNA levels [2]: > 15 fold

Structure (SMILES): O=C(CCCCCCC(=O)Nc1ccccc1)NO [compound 2, vorinostat]
- increase of ΔF508-CFTR mRNA levels [2]: > 15 fold
- increase of ΔF508-CFTR protein levels [2]: 25 fold

Structure (SMILES): C/C=C1\NC(=O)[C@H]2CSSCC/C=C/[C@H](CC(=O)N[C@H](C(C)C)C(=O)N2)OC(=O)[C@H](C(C)C)NC1=O [romidepsin]
- expression of HDAC7 in treated cells [3]: selectively down-regulated
